Assay results: the CheMixHub drug solubility set

Assay: xn = mol fraction of the nth substance listed, in the solute-free solvent

Nc1cccc2ccncc12 + CCCO + O
solubility (g/100 g solution)
Conditions	278.15 K	283.15 K	288.15 K	293.15 K	298.15 K	303.15 K	308.15 K	313.15 K	318.15 K	323.15 K
x2 = 0.03225	0.0813	0.0931	0.106	0.124	0.14	0.162	0.187	0.216	0.247	0.285
x2 = 0.06974	0.175	0.199	0.226	0.263	0.297	0.341	0.393	0.45	0.513	0.589
x2 = 0.1139	0.299	0.34	0.385	0.448	0.506	0.58	0.668	0.764	0.87	0.997
x2 = 0.1666	0.433	0.493	0.56	0.652	0.739	0.848	0.978	1.12	1.27	1.46
x2 = 0.2307	0.521	0.606	0.711	0.84	0.964	1.11	1.28	1.47	1.69	1.94
x2 = 0.3103	0.618	0.731	0.862	1.01	1.16	1.33	1.55	1.78	2.06	2.38
x2 = 0.4117	0.686	0.822	0.992	1.18	1.36	1.59	1.84	2.12	2.44	2.82
x2 = 0.5454	0.774	0.916	1.11	1.32	1.53	1.78	2.08	2.41	2.78	3.21
x2 = 0.7297	0.791	0.959	1.16	1.39	1.64	1.92	2.24	2.6	3.03	3.54

Nc1cccc2ccncc12 + CC(C)O + O
solubility (g/100 g solution)
Conditions	278.15 K	283.15 K	288.15 K	293.15 K	298.15 K	303.15 K	308.15 K	313.15 K	318.15 K	323.15 K
x2 = 0.03225	0.0706	0.0813	0.0925	0.109	0.123	0.142	0.165	0.191	0.218	0.252
x2 = 0.06974	0.141	0.163	0.184	0.215	0.244	0.279	0.323	0.372	0.424	0.489
x2 = 0.1139	0.235	0.271	0.306	0.357	0.405	0.463	0.534	0.617	0.702	0.808
x2 = 0.1666	0.339	0.393	0.445	0.519	0.59	0.676	0.78	0.902	1.03	1.18
x2 = 0.2307	0.393	0.466	0.559	0.658	0.767	0.883	1.02	1.18	1.36	1.58
x2 = 0.3103	0.5	0.587	0.696	0.819	0.952	1.09	1.26	1.47	1.68	1.95
x2 = 0.4117	0.573	0.687	0.826	0.98	1.13	1.3	1.5	1.75	2.02	2.35
x2 = 0.5454	0.633	0.765	0.915	1.08	1.25	1.46	1.7	1.97	2.3	2.69
x2 = 0.7297	0.576	0.73	0.906	1.1	1.31	1.58	1.84	2.16	2.51	2.94

CC(=O)Oc1cccc2c1C(=O)c1c(OC(C)=O)cc(C(=O)O)cc1C2=O + CCOC(C)=O + CCO
solubility (g/100 g solution)
Conditions	273.15 K	278.15 K	283.15 K	288.15 K	293.15 K	298.15 K	303.15 K	308.15 K	313.15 K
x2 = 0.05491	0.00668	0.0091	0.0121	0.016	0.0207	0.0262	0.0328	0.04	0.0477
x2 = 0.1156	0.00776	0.0107	0.0144	0.0188	0.0241	0.0303	0.0382	0.0464	0.0564
x2 = 0.1831	0.015	0.0183	0.022	0.0265	0.0324	0.0391	0.0465	0.0555	0.0662
x2 = 0.2585	0.0202	0.0259	0.0317	0.0381	0.045	0.0534	0.0632	0.0734	0.0846
x2 = 0.3434	0.0268	0.0331	0.0402	0.0487	0.0574	0.067	0.078	0.0898	0.103
x2 = 0.4396	0.033	0.0398	0.0471	0.0563	0.0659	0.0773	0.0893	0.103	0.118
x2 = 0.5496	0.0337	0.0411	0.0496	0.0593	0.0698	0.0813	0.0934	0.109	0.125
x2 = 0.6765	0.0349	0.0419	0.0506	0.0609	0.0723	0.0849	0.0975	0.112	0.127
x2 = 0.8247	0.0222	0.0276	0.0334	0.0401	0.048	0.0562	0.0655	0.0763	0.087

Cc1ccc2cc(Br)ccc2n1 + CO + O
solubility (g/100 g solution)
Conditions	278.15 K	283.15 K	288.15 K	293.15 K	298.15 K	303.15 K	308.15 K	313.15 K	318.15 K	323.15 K
x2 = 0.05881	0.0126	0.0148	0.0176	0.0206	0.0242	0.0281	0.0331	0.0386	0.045	0.0524
x2 = 0.1233	0.0194	0.0228	0.0268	0.0314	0.0369	0.0428	0.0502	0.0586	0.0682	0.0793
x2 = 0.1942	0.0298	0.0349	0.0409	0.0477	0.056	0.0651	0.0761	0.0886	0.103	0.12
x2 = 0.2727	0.0444	0.052	0.0607	0.0706	0.0828	0.0963	0.112	0.131	0.152	0.177
x2 = 0.3599	0.0588	0.0705	0.0835	0.0981	0.115	0.135	0.156	0.18	0.21	0.245
x2 = 0.4576	0.0792	0.095	0.112	0.133	0.155	0.18	0.21	0.245	0.283	0.331
x2 = 0.5675	0.097	0.117	0.14	0.166	0.195	0.228	0.266	0.311	0.361	0.421
x2 = 0.6923	0.118	0.142	0.169	0.199	0.233	0.272	0.318	0.374	0.436	0.511
x2 = 0.835	0.133	0.159	0.19	0.227	0.27	0.317	0.368	0.429	0.504	0.593

NC(Cc1c[nH]c2ccccc12)C(=O)O (stereo unspecified) + O + CO
solubility (g/100 g solution)
Conditions	288.15 K	293.15 K	298.15 K	303.15 K	308.15 K
x2 = 0.1908	0.556	0.608	0.684	0.776	0.875
x2 = 0.3955	0.677	0.741	0.831	0.94	1.06
x2 = 0.595	0.827	0.902	1.01	1.14	1.28
x2 = 0.7962	1.02	1.11	1.23	1.38	1.56
